In PubChem BioAssay (NCI):
Values joined by “and” are separate entries in the source; they are usually repeats but may differ in a detail not shown here. Equal entries are not always repeated.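 48-hour exposure; five concentrations; linearly interpolated endpoints. GI50 is the concentration that inhibits growth by half. TGI denotes the concentration required for complete inhibition of growth.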

Tests used:
Test in all cases: NCI-60 cell line screen, 48 h
[1] = test system: SN12C renal
[2] = test system: 786-0 renal
[3] = test system: TK-10 renal
[4] = test system: HT29 colon
[5] = test system: SF-295 CNS
[6] = test system: NCI/ADR-RES ovarian
[7] = test system: HOP-62 NSCLC
[8] = test system: U251 CNS
[9] = test system: MDA-MB-435
[10] = test system: SK-OV-3 ovarian

SMILES	GI50 [1] [µM]	TGI [1]	GI50 [2] [µM]	TGI [2]	GI50 [3] [µM]	TGI [3]	GI50 [4] [µM]	TGI [4]	GI50 [5] [µM]	TGI [5]	GI50 [6] [µM]	TGI [6]	GI50 [7] [µM]	TGI [7]	GI50 [8] [µM]	TGI [8]	GI50 [9] [µM]	TGI [9]	GI50 [10] [µM]	TGI [10]
Cc1cccc2c1[nH]c(=O)c1c3ccccc3cn21	1.81	18.8 µM	5.92	32.2 µM	26.8	86.2 µM	2.16	13.1 µM	2.64	25.1 µM	12.1	34.8 µM	3.58	15.2 µM	6.57	19.4 µM	3.14	11.6 µM	27.5	> 100 µM
C=C1CCC2C3(C)COC(c4ccccc4Cl)OC3CCC2(C)C1/C=C/C1=CCOC1=O (configuration not stated)	> 100	> 100 µM	> 100	> 100 µM	19	> 100 µM	5.43	> 100 µM	3.48	> 100 µM	7.74	> 100 µM	> 100	> 100 µM	24	> 100 µM	9.89	> 100 µM	> 100	> 100 µM
COc1ccc(S(=O)(=O)N(C(C)=O)c2ccccc2/C=C/c2cc[n+]([O-])cc2)cc1	1.61	> 10 µM	1.67	> 10 µM	–	> 10 µM	0.422	> 10 µM	0.385	> 10 µM	2.51	> 10 µM	0.86	> 10 µM	0.504	> 10 µM	0.143	0.576 µM	1.05	> 10 µM
O=C(O)c1ccc(SSc2ccc(C(=O)O)cn2)nc1	–	> 100 µM	–	> 100 µM	–	> 100 µM	–	> 100 µM	–	> 100 µM	–	> 100 µM	–	> 100 µM	–	> 100 µM	–	> 100 µM	–	> 100 µM
COc1cc(CNc2oc(-c3ccccc3)c(-c3ccccc3)c2C#N)cc(CN2CCN(C)CC2)c1O	3.95	15.3 µM	1.68	3.21 µM	1.62	3.34 µM	1.92	3.99 µM	1.87	3.49 µM	2.1	4.75 µM	1.92	4.21 µM	1.76	3.58 µM	1.77	3.26 µM	2.22	4.06 µM
CCC1=C(CC2NCCc3ccccc32)CC2c3cc(OC)c(OC)cc3CCN2C1 (configuration not stated)	4.92	35.6 µM and 7.34 µM	4.04	17.1 µM and 2.9 µM	6.08	30.4 µM and 3.83 µM	3.31	11.8 µM and 4.53 µM	3.73	15 µM and 6.82 µM	6.7	50.9 µM and 12.4 µM	3.6	17.1 µM and 4.65 µM	4.8	16.4 µM and 2.77 µM	3.51	14.2 µM and 2.45 µM	4.07	25.6 µM and 17.1 µM
CC/C(=C/c1ccc(OC)cc1OC)[N+](=O)[O-]	2.31	6.61 µM	1.77	3.29 µM	2.62	6.5 µM	3.37	11.1 µM	9.88	21.7 µM	3.17	12.6 µM	2.38	7.14 µM	4.93	16.2 µM	1.97	5.7 µM	16.7	30.4 µM
Nc1cccc2c1C(=O)c1cccc(NC(=O)c3ccccc3)c1C2=O	0.723	> 80.6 µM	0.646	15.7 µM	1.13	8.13 µM	0.291	2.67 µM	0.166	1.35 µM	0.212	–	0.535	21.5 µM	0.54	13.8 µM	0.0364	0.414 µM	0.425	9.24 µM
CN1CCN(CCCOc2cc(O)c3c(=O)cc(-c4ccccc4)oc3c2)CC1	18.9	41.3 µM	20.6	43.3 µM	20.5	48.3 µM	14.5	30.4 µM	21.1	44.5 µM	18.6	43.2 µM	16.6	32 µM	15.1	29 µM	13.7	32.9 µM	19.4	38.4 µM
COc1cc(C(=O)c2cocc2C(=O)c2ccc3c(c2)OCO3)cc(OC)c1OC	–	56.1 µM	–	39.7 µM	–	47.2 µM	–	5.98 µM	–	2.48 µM	–	1.3 µM	–	31.3 µM	–	8.35 µM	–	0.955 µM	–	47.3 µM
O=c1[nH]c(=O)n(C2CC(O)C(CO)O2)cc1C(F)(F)F (configuration not stated)	3.8	> 100 µM	0.464	–	> 100	> 100 µM	33.8	> 100 µM	2.79	> 100 µM	4.81	> 100 µM	3.68	> 100 µM	4.42	> 100 µM	5.31	> 100 µM	10.1	> 100 µM
CC(SCc1ccccc1)C(=O)O (configuration not stated)	–	> 100 µM	–	> 100 µM	–	> 100 µM	–	> 100 µM	–	> 100 µM	–	> 100 µM	–	> 100 µM	–	> 100 µM	–	> 100 µM	–	> 100 µM
C[N+](C)=c1ccc2nc3c(cc(NCCCNc4cc5oc6cc(=[N+](C)C)ccc-6nc5c5ccccc45)c4ccccc43)oc-2c1	2.33	7.39 µM	4.66	43.4 µM	17.3	39.3 µM	1.81	6.29 µM	4.64	31.8 µM	6.63	> 100 µM	2.92	13 µM	2.36	5.87 µM	1.76	3.29 µM	18.7	42.3 µM
